Experimental data: US11149066B2, “Thrombospondin 1-binding peptide” (DAIICHI SANKYO COMPANY, LIMITED, priority 2016, dated 2021)
Positions of bridges follow the written chain, without caps; N, C: chain ends. Non-standard residues stand in square brackets, D forms with d. Residues, ends and D or L forms follow the SMILES beside them. Trp(6-Cl) = N[C@@H](Cc1c[nH]c2cc(Cl)ccc12)C(=O)O; Phe(3,4-Cl2) = N[C@@H](Cc1ccc(Cl)c(Cl)c1)C(=O)O; 2Nal = N[C@@H](Cc1ccc2ccccc2c1)C(=O)O

Each compound was assayed against human TSP1 (Homo sapiens, UniProt P07996) (assay: Cell adhesion inhibition assay (HUVEC adhesion to TSP1-coated plate)). Details: HUVEC adhesion to human platelet thrombospondin-coated plate, 2.5 hours, CellTiter-Glo; read-out: Cell adhesion IC50.
human TSP1, sequence (P07996 19-1170 limits assumed): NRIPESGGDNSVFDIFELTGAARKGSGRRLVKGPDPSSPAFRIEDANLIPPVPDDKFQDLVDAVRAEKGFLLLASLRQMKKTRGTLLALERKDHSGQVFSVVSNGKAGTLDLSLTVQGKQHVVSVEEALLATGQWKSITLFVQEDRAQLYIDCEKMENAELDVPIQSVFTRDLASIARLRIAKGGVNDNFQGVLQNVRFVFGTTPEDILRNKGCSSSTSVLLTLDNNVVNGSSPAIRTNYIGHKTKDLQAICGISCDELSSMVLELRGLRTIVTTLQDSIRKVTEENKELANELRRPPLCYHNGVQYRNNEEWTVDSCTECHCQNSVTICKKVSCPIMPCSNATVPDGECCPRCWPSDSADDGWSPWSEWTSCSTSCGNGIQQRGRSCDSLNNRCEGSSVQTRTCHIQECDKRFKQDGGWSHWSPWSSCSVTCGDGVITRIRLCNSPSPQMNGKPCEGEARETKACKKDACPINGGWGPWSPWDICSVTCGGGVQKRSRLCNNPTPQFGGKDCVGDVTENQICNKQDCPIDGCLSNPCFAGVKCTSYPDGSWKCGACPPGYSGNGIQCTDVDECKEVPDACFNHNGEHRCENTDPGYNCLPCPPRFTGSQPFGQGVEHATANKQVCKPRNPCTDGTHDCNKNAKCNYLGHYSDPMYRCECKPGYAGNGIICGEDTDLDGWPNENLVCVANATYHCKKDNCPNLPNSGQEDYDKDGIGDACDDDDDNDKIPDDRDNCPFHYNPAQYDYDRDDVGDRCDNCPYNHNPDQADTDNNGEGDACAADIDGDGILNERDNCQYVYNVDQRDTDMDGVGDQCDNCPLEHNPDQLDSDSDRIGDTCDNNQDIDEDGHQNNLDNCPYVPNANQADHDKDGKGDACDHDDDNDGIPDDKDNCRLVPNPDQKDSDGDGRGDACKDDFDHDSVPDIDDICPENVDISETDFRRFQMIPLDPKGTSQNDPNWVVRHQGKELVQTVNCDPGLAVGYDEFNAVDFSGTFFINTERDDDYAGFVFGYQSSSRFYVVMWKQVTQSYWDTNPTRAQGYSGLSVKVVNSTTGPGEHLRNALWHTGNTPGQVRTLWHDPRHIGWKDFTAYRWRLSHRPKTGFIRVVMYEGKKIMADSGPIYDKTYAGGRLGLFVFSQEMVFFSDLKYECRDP
Assay type: cell-based
Protocol: As referred to herein, the TSP1 inhibitory activity refers to the activity to inhibit one or more effects of TSP1, including angiostatic effect. The TSP1 inhibitory activity is measured by a cell adhesion inhibition assay using human TSP1 and vascular endothelial cells as described hereinbelow in the Examples section. In this assay, when the 50% inhibitory concentration (IC5O) of a test substance is 200 nM or less, the test substance is determined to have TSP1 inhibitory activity.
(Test Example 1) Cell Adhesion Inhibition Assay
I. Materials and Reagents
96 well Non-treated White with clear bottom (Coster, 3632)
BrightMax adhesive sealing films (EXCEL Scientific, WT50)
Proteosave®SS 15 mL (Sumitomo Bakelite, MS-52150)
Thrombospondin human platelet (Calbiochem, 605225)
EGM-2 MV (Lonza, CC-3202): for HUVEC passaging
Collagen coated dish (IWAKI, 4020-010): for HUVEC passaging
Lipidure®-BL802 (NOF Corporation), 5% solution
Albumin solution (35%) fraction V from Bovine (Sigma, A7979)
CellTiter-Glo (Promega, G7572)
Thrombospondin 1 vial (25 μg) was dissolved in TBS (+2 mM CaCl2; the same shall apply hereunder) to make a 200 μg/mL solution, which was diluted with TBS to a concentration of 10 μg/mL in Proteosave® 15 mL tube. The 10 μg/mL solution was dispensed into a 96 well plate at a volume of 50 μL/well (no reservoir was used since the protein easily adsorbs on it), and the plate was left to stand at 4° C. overnight.
Lipidure® was diluted 10-fold with TBS to make a 0.5% solution. After a buffer was discarded from the plate that had been coated at the step of <Plate coat> as described above, the 0.5% solution was dispensed into all wells to be used at a volume of 100 μL/well, and the plate was left to stand at room temperature for 1 hour.
A 0.2 μM solution of each sample was prepared using a dilution buffer (DMEM+0.5% BSA). 2 μL of the 0.2 μM solution was diluted with 500 μL, of dilution buffer to prepare a diluted sample. As a vehicle control, DMSO was diluted in the same way as the samples.
A blocking solution was discarded from the plate that had been treated at the step of <Plate blocking> as described above, and the plate was washed three times with 150 μL/well of TBS. The washing solution used for the third washing was completely sucked out by an aspirator, and the diluted sample was dispensed into the plate at a volume of 50 μL/well. Then, the plate was left to stand at room temperature for 15 to 30 minutes.
To maintain HUVECs, EGM2-MV and a collagen coated dish were used (the cells were ceased to be used after 10th or 1 lth passage since the cell proliferation rate declined at this stage). The cells were dispersed with 0.05% Trypsin/EDTA, harvested in DMEM/0.5% BSA, and centrifuged at 1000 rpm for 3 minutes. After removal of supernatant, the cells were washed once with a DMEM buffer. The cells were resuspended in a DMEM buffer, counted for cell number, and diluted to 10000 cells/50 μL. The cell suspension was dispensed at a volume of 50 μL/well into the plate into which the sample had been dispensed, mixed gently, and incubated at 37° C. for 2.5 hours.
After cell adhesion was confirmed, the culture medium was completely removed by an aspirator, and 100 μL/well of DMEM/0.5% BSA was gently dispensed. Then, DMEM/0.5% BSA was completely removed by an aspirator, and 50 μL/well of DMEM/0.5% BSA was dispensed. After a white seal was applied to the bottom of the plate, 50 μL/well of CellTiter-Glo® was dispensed, and the solution was stirred for 2 minutes and left to stand at room temperature for 8 minutes. […] was detected using EnVision Xcite Multilabel Reader (produced by Perkin Elmer).
On the basis of the measured fluorescence values, the IC50 values (nM) of the different macrocyclic polypeptides for inhibition of cell adhesion were calculated.

SMILES	IC50 [µM]
CC[C@H](C)[C@@H]1NC(=O)[C@H](Cc2c[nH]c3ccccc23)NC(=O)CSC[C@@H](C(N)=O)NC(=O)[C@H](C(C)C)NC(=O)[C@H](Cc2c[nH]c3ccccc23)NC(=O)[C@H](CCCCN)NC(=O)[C@H](C(C)C)NC(=O)[C@H](Cc2c[nH]c3ccccc23)NC(=O)[C@H](CC(N)=O)NC(=O)[C@H](CCCNC(=N)N)NC(=O)CNC(=O)[C@H](CO)NC1=O [Compound 9] ({CH2CO}-WISGRNWVKWVC-NH2; thioether N-12)	0.0273
CC[C@H](C)[C@@H]1NC(=O)[C@H](Cc2c[nH]c3ccccc23)NC(=O)CSC[C@@H](C(N)=O)NC(=O)[C@H](C(C)C)NC(=O)[C@H](Cc2c[nH]c3ccccc23)NC(=O)[C@H](CCCCN)NC(=O)[C@H](C(C)C)NC(=O)[C@H](Cc2c[nH]c3ccccc23)NC(=O)[C@H](CC(N)=O)NC(=O)[C@H](CCCCN)NC(=O)CNC(=O)[C@H](CO)NC1=O [Compound 16] ({CH2CO}-WISGKNWVKWVC-NH2; thioether N-12)	0.021
CC[C@H](C)[C@@H]1NC(=O)[C@H](Cc2ccccc2)NC(=O)CSC[C@@H](C(N)=O)NC(=O)[C@H](C(C)C)NC(=O)[C@H](Cc2c[nH]c3ccccc23)NC(=O)[C@H](CCCCN)NC(=O)[C@H](C(C)C)NC(=O)[C@H](Cc2c[nH]c3ccccc23)NC(=O)[C@H]([C@@H](C)O)NC(=O)[C@H](CCCCN)NC(=O)CNC(=O)[C@H](CO)NC1=O [Compound 18] ({CH2CO}-FISGKTWVKWVC-NH2; thioether N-12)	0.013
CC[C@H](C)[C@@H]1NC(=O)[C@H](Cc2ccccc2)NC(=O)CSC[C@@H](C(N)=O)NC(=O)[C@H](C(C)C)NC(=O)[C@H](Cc2c[nH]c3ccccc23)NC(=O)[C@H](CCCCN)NC(=O)[C@H](CCSC)NC(=O)[C@H](Cc2c[nH]c3ccccc23)NC(=O)[C@H](CC(N)=O)NC(=O)[C@H](CCCCN)NC(=O)CNC(=O)[C@H](CO)NC1=O [Compound 19] ({CH2CO}-FISGKNWMKWVC-NH2; thioether N-12)	0.014
CC(C)[C@@H]1NC(=O)[C@H](Cc2c[nH]c3ccccc23)NC(=O)[C@H](CCCCN)NC(=O)[C@H](C(C)C)NC(=O)[C@H](Cc2c[nH]c3ccccc23)NC(=O)[C@H](CC(N)=O)NC(=O)[C@H](CCCNC(=N)N)NC(=O)CNC(=O)[C@H](CO)NC(=O)[C@H](Cc2ccc3ccccc3c2)NC(=O)[C@H](Cc2ccc(Cl)c(Cl)c2)NC(=O)CSC[C@@H](C(N)=O)NC1=O [Compound 34] ({CH2CO}-[Phe(3,4-Cl2)][2Nal]SGRNWVKWVC-NH2; thioether N-12)	0.0281
CC[C@H](C)[C@@H]1NC(=O)[C@H](Cc2ccc3ccccc3c2)NC(=O)CSC[C@@H](C(N)=O)NC(=O)[C@H](C(C)C)NC(=O)[C@H](Cc2c[nH]c3ccccc23)NC(=O)[C@H](CCCCN)NC(=O)[C@H](C(C)C)NC(=O)[C@H](Cc2c[nH]c3cc(Cl)ccc23)NC(=O)[C@H](CC(N)=O)NC(=O)[C@H](CCCNC(=N)N)NC(=O)CNC(=O)[C@H](CO)NC1=O [Compound 35] ({CH2CO}-[2Nal]ISGRN[Trp(6-Cl)]VKWVC-NH2; thioether N-12)	0.026
CC[C@H](C)[C@@H]1NC(=O)[C@H](Cc2ccc3ccccc3c2)NC(=O)CSC[C@@H](C(N)=O)NC(=O)[C@H](C(C)C)NC(=O)[C@H](Cc2c[nH]c3cc(Cl)ccc23)NC(=O)[C@H](CCCCN)NC(=O)[C@H](C(C)C)NC(=O)[C@H](Cc2c[nH]c3ccccc23)NC(=O)[C@H](CC(N)=O)NC(=O)[C@H](CCCNC(=N)N)NC(=O)CNC(=O)[C@H](CO)NC1=O [Compound 36] ({CH2CO}-[2Nal]ISGRNWVK[Trp(6-Cl)]VC-NH2; thioether N-12)	0.0172

The next lines start with the values.

IC50 [µM]	SMILES
0.034	CC[C@H](C)[C@@H]1NC(=O)[C@H](Cc2ccccc2)NC(=O)CSC[C@@H](C(N)=O)NC(=O)[C@H](C(C)C)NC(=O)[C@H](Cc2c[nH]c3ccccc23)NC(=O)[C@H](C(C)C)NC(=O)[C@H](C(C)C)NC(=O)[C@H](Cc2c[nH]c3ccccc23)NC(=O)[C@H](CC(N)=O)NC(=O)[C@H](CCCNC(=N)N)NC(=O)CNC(=O)[C@H](CO)NC1=O [Compound 1] ({CH2CO}-FISGRNWVVWVC-NH2; thioether N-12)
0.0334	CC[C@H](C)[C@@H]1NC(=O)[C@H](Cc2ccccc2)NC(=O)CSC[C@@H](C(N)=O)NC(=O)[C@H](CCCNC(=N)N)NC(=O)[C@H](Cc2c[nH]c3ccccc23)NC(=O)[C@H](CCCNC(=N)N)NC(=O)[C@H](C(C)C)NC(=O)[C@H](Cc2c[nH]c3ccccc23)NC(=O)[C@H](CC(N)=O)NC(=O)[C@H](CCCNC(=N)N)NC(=O)CNC(=O)[C@H](CO)NC1=O [Compound 5]
0.0334	CC(C)[C@@H]1NC(=O)[C@H](Cc2c[nH]c3ccccc23)NC(=O)[C@H](CCCNC(=N)N)NC(=O)[C@H](C(C)C)NC(=O)[C@H](Cc2c[nH]c3ccccc23)NC(=O)[C@H](CC(N)=O)NC(=O)[C@H](CCCNC(=N)N)NC(=O)CNC(=O)[C@H](CO)NC(=O)[C@H](CCCNC(=N)N)NC(=O)[C@H](Cc2ccccc2)NC(=O)CSC[C@@H](C(N)=O)NC1=O [Compound 8] ({CH2CO}-FRSGRNWVRWVC-NH2; thioether N-12)
0.026	CC[C@H](C)[C@@H]1NC(=O)[C@H](Cc2c[nH]c3ccccc23)NC(=O)CSC[C@@H](C(N)=O)NC(=O)[C@H](C(C)C)NC(=O)[C@H](Cc2c[nH]c3ccccc23)NC(=O)[C@H](CCCNC(=N)N)NC(=O)[C@H](C(C)C)NC(=O)[C@H](Cc2c[nH]c3ccccc23)NC(=O)[C@H](CC(N)=O)NC(=O)[C@H](CCCNC(=N)N)NC(=O)CNC(=O)[C@H](CO)NC1=O [Compound 11] ({CH2CO}-WISGRNWVRWVC-NH2; thioether N-12)
0.013	CC[C@H](C)[C@@H]1NC(=O)[C@H](Cc2c[nH]c3ccccc23)NC(=O)CSC[C@@H](C(N)=O)NC(=O)[C@H](C(C)C)NC(=O)[C@H](Cc2c[nH]c3ccccc23)NC(=O)[C@H](CCCCN)NC(=O)[C@H](C(C)C)NC(=O)[C@H](Cc2c[nH]c3ccccc23)NC(=O)[C@H]([C@@H](C)O)NC(=O)[C@H](CCCCN)NC(=O)CNC(=O)[C@H](CO)NC1=O [Compound 20] ({CH2CO}-WISGKTWVKWVC-NH2; thioether N-12)
0.0156	CC[C@H](C)[C@@H]1NC(=O)[C@H](Cc2c[nH]c3ccccc23)NC(=O)CSC[C@@H](C(N)=O)NC(=O)[C@H](C(C)C)NC(=O)[C@H](Cc2c[nH]c3ccccc23)NC(=O)[C@H](CCCCN)NC(=O)[C@H](C(C)C)NC(=O)[C@H](Cc2c[nH]c3ccccc23)NC(=O)[C@H]([C@@H](C)O)NC(=O)[C@H](CCCNC(=N)N)NC(=O)CNC(=O)[C@H](CO)NC1=O [Compound 23] ({CH2CO}-WISGRTWVKWVC-NH2; thioether N-12)
0.0167	CC[C@H](C)[C@@H]1NC(=O)[C@H](Cc2ccc3ccccc3c2)NC(=O)CSC[C@@H](C(N)=O)NC(=O)[C@H](C(C)C)NC(=O)[C@H](Cc2c[nH]c3ccccc23)NC(=O)[C@H](CCCCN)NC(=O)[C@H](C(C)C)NC(=O)[C@H](Cc2c[nH]c3ccccc23)NC(=O)[C@H](CC(N)=O)NC(=O)[C@H](CCCNC(=N)N)NC(=O)CNC(=O)[C@H](C)NC1=O [Compound 30] ({CH2CO}-[2Nal]IAGRNWVKWVC-NH2; thioether N-12)
0.0207	CC(C)[C@@H]1NC(=O)[C@H](Cc2c[nH]c3ccccc23)NC(=O)[C@H](CCCCN)NC(=O)[C@H](C(C)C)NC(=O)[C@H](Cc2c[nH]c3ccccc23)NC(=O)[C@H](CC(N)=O)NC(=O)[C@H](CCCNC(=N)N)NC(=O)CNC(=O)[C@H](CO)NC(=O)[C@H](Cc2c[nH]c3ccccc23)NC(=O)[C@H](Cc2ccc3ccccc3c2)NC(=O)CSC[C@@H](C(N)=O)NC1=O [Compound 33] ({CH2CO}-[2Nal]WSGRNWVKWVC-NH2; thioether N-12)
